What was measured:
Assay type in all cases: biochemical
[1] = target: T1, Recombinant human cathepsin K (Homo sapiens, UniProt P43235); assay: Thermal stability of cathepsin K at pH 7.4 in the presence of modifiers; conditions: for stability: ln(sf), sf = ratio of half-lives in the presence and absence of modifier: 37 °C and pH 7.4
T1 construct: made in house
T1 sequence (P43235 115-329): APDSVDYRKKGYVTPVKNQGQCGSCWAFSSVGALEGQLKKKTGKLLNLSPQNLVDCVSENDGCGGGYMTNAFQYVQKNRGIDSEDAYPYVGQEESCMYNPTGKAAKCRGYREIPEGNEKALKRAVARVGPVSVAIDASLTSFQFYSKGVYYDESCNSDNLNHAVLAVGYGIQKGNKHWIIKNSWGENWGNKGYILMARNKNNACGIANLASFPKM
Experimental: Cathepsin K was incubated at 37°C in 50 mM Hepes buffer pH 7.40 containing 1 mM EDTA and 5 mM DTT in the presence or absence of each modifier. The final enzyme concentration was 0.2 µM and final compounds concentrations were 2 mM, except compound 2, which was used at a concentration of 1 mM. All experiments were performed in Eppendorf Protein LoBind Tubes to minimize the adsorption of proteins on tube walls. Aliquots were withdrawn from the reaction mixtures at regular time intervals and their residual activity measured using the substrate Z-FR↓AMC (5 µM final concentration). Inactivation curves had exponential profiles that were fitted with the mathematical model for one-phase exponential decay to determine the half-life of the enzyme in each reaction mixture.

[2] = target: T1, Recombinant human cathepsin K; assay: Kinetic measurements, hydrolysis of the fluorogenic substrate Z-FR↓AMC (general modifier mechanism); parameters: key to α (coefficient, effect of modifier on the affinity for the substrate) / β (coefficient, effect of modifier on the catalytic rate): dimensionless coefficients multiplying KS (α) and kcat (β); conditions: for Z-FRAMC: geometric mean of residual activities (vA): at 0.1×Km and 10×Km substrate, modifier 10×KA, calculated with Equation 1 from α and β of Table 3, unmodified enzyme = 1.00; for β (coefficient, effect of modifier on the catalytic rate) / Kd / α (coefficient, effect of modifier on the affinity for the substrate) / Kinetic mechanism of modification: substrate Z-FR↓AMC; for β (coefficient, effect of modifier on the catalytic rate) / Kd / α (coefficient, effect of modifier on the affinity for the substrate): pH 5.50, 25°C, 0.5 nM enzyme; for Kd: read-out: K A (equilibrium dissociation constant of the EA complex); for Kinetic mechanism of modification: from combinations of α and β
Experimental: All modifiers were tested for their effect on the hydrolysis of the low molecular mass synthetic substrate Z-FR↓AMC. Since all progress curves were linear from the beginning of the reaction, initial velocities were calculated from the slopes by linear regression. […] The basic mechanism considered for the analysis of the interactions was the general modifier mechanism shown in Figure 2, in which the effect of modifier is determined by the values of the coefficients α and β that multiply the kinetic parameters K S, K A (α) and k cat (β). In the thermodynamic box embodied in Figure 2, the reciprocal of the coefficient α represents the allosteric coupling constant that characterizes energy linkage between the modifier and the substrate, while a […] represents the effect exerted by the modifier on catalysis. The specific velocity plot was used for the primary screening of the kinetic behavior of the modifiers (Equation 2), as it allows an immediate judgment of the type of interaction and to gather preliminary estimates of the coefficients α and β, as well as of the dissociation constant of the modifier. Refinement was then performed by fitting the rate Equation 1 to data.
Figure 3 Kinetic mechanisms of the identified modifiers. All compounds were characterized by a combination of specific velocity plots (upper panels) and titration curves recorded at fixed substrate concentrations (lower panels). All experiments were performed at 25±1°C in 100 mM sodium acetate buffer pH 5.50 containing 1 mM EDTA and 2.5 mM DTT using the fluorogenic substrate Z-FR↓AMC and at a final enzyme concentration of 0.5 nM.
All kinetic measurements were performed in 100 mM sodium acetate buffer pH 5.50 containing 1 mM EDTA and 2.5 mM dithiothreitol (DTT) in single-use acrylic cuvettes (1×1 cm) thermostatted at 25±1°C with magnetic stirring. The hydrolysis of Z-FR↓AMC was followed fluorometrically at λex 383 nm and λem 455 nm. All tested modifiers were analyzed spectroscopically to determine their absorption properties under the conditions used in the assays. When necessary, appropriate corrections were made to the calculated reaction rates to take into account the inner filter effect.
The effects of the modifiers on enzymatic activity were analyzed with the general modifier mechanism which describes the interaction between enzyme (E), substrate (S) and modifier (A), as shown in Figure 2. Assuming that binding of A to E and ES is at quasi-equilibrium and that steady-state conditions are established in the fluxes around ES and ESA (i.e. the catalytic steps), the reaction rate for the mechanism in Figure 2 is defined by Equation 1: [drawing 2] (1) where v 0 is the reaction rate in the absence of modifier, K A is the equilibrium dissociation constant of the EA complex, α and β are dimensionless coefficients and σ = [S]/K m, approximated to [S]/K s. To determine the mechanism of interaction, plot the kinetic data and calculate preliminary values of the interaction parameters, the specific velocity plot was used. For this purpose, Equation 1 is rewritten as:
The plot of v 0/v A versus σ/(1+σ) produces straight lines with intersection points at v 0/v A = 1, regardless of the interaction mechanism. The parameters α, β and K A are determined by replotting the extrapolated values of the straight lines at σ/(1+σ) = 0 (a) and σ/(1+σ) = 1 (b) versus 1/[A] in the form: [drawing 4] (3) [drawing 5] (4)

[3] = target: T1, Recombinant human cathepsin K; assay: Collagenolytic assays (calf skin collagen, SDS-PAGE); parameters: key to collagen: qualitative value: qualitative values of 1 and 0 were used to signify inhibition and lack thereof, respectively; qualitative values of 1 and 0 were used to signify inhibition and lack thereof, respectively; a value of -1 was used to describe the concentration-dependent roles of glycosaminoglycans; conditions: for collagen: qualitative value: activity modification matrix
Experimental: The use of synthetic substrates is practical for the determination of the mechanisms of modification. […] Therefore, all modifiers were also tested with two macromolecular substrates, calf skin collagen and azocasein. The collagenolytic activity was tested quantitatively by following the fragmentation of the characteristic type I collagen pattern into smaller products on SDS-PAGE after incubation of the samples with cathepsin K in the presence and absence of modifiers.
Soluble calf skin collagen (Worthington Biochemical Corporation, USA) was diluted in 100 mM sodium acetate buffer pH 5.50 containing 1 mM EDTA and 5 mM DTT to a final concentration of 0.5 mg/ml. Experiments were started by addition of cathepsin K (final enzyme concentration 0.6 µM) to the reaction mixture containing collagen and increasing concentrations of modifier. All assays were performed at 28°C with shaking on an Eppendorf Thermomixer Comfort. Samples were incubated for 2 hours and the reactions then blocked by addition of E-64 to a final concentration of 1 µM. 10 µg of digested collagen were analyzed by SDS-PAGE on 8% polyacrylamide gels and protein bands visualized by Coomassie Brilliant Blue R-250 staining.

[4] = target: T1, Recombinant human cathepsin K; assay: Azocasein degradation assays; conditions: for IC 50 relative to K A: azocasein IC50 versus K A with Z-FR↓AMC; for IC50: azocasein degradation; for remaining activity: pH 5.5, substrate azocasein 3 mg/ml, 0.1 µM cathepsin K, 30 min 37°C, pH 5.50, read-out: Residual activity; for remaining activity / Effect on azocasein degradation: compounds up to 2 mM (compound 2: 1 mM); for azocasein: fraction of residual enzyme activity: value of 1 equals the activity of unmodified enzyme, activity modification matrix
From the text: Figure 4 Effect of modifiers on the degradation of macromolecular substrates. (A) Effect of increasing concentrations of compounds 1 and 2 on the degradation of calf skin collagen. Molecular mass standards are given in kDa and positions of α, β and γ chains of intact collagen are marked by arrows. (B) Effect of modifiers on azocasein degradation. (C) Effect of glycosaminoglycans and clusterin on azocasein degradation. Two different concentrations of each glycosaminoglycan were used in the experiments (10 µg/ml and 200 µg/ml). Error bars in panels B and C represent the SEM of three experiments. All experiments were performed in 100 mM sodium acetate buffer pH 5.50 containing 1 mM EDTA and 5 mM DTT, as described in detail in the Materials and Methods section. Abbreviations: CPD – compound, CS – chondroitin sulfate, DS – dermatan sulfate, HP – heparin.
Azocasein (Sigma-Aldrich, USA) was dissolved in 100 mM sodium acetate buffer pH 5.50 containing 1 mM EDTA and 5 mM DTT at a concentration of 3 mg/ml. Samples were incubated with 0.1 µM cathepsin K for 30 min at 37°C in the presence of each compound. […] Reactions were stopped by addition of trichloroacetic acid (final concentration 5% v/v), centrifuged, clear supernatants mixed with 0.5 M NaOH and the concentrations of solubilized peptides determined by measuring the absorbance at 440 nm. All experiments were performed in triplicates and appropriate blanks were run to take into account the absorption of azocasein and compounds alone. IC 50 values were determined as described previously.

[5] = substrate calf skin collagen 0.5 mg/ml, 0.6 µM cathepsin K, 2 hours 28°C, pH 5.50, estimated

| stability: ln(sf), sf = ratio of half-lives in the presence and absence of modifier [1] | Z-FRAMC: geometric mean of residual activities (vA) [2] | β (coefficient, effect of modifier on the catalytic rate) [2] | Kd [2] | collagen: qualitative value [3] | IC 50 relative to K A [4] | IC50 [4] | remaining activity [4] | azocasein: fraction of residual enzyme activity [4] | α (coefficient, effect of modifier on the affinity for the substrate) [2] | IC50 [3, 5] | Effect on azocasein degradation [4] | SMILES | Kinetic mechanism of modification [2] | also measured |
| --- | --- | --- | --- | --- | --- | --- | --- | --- | --- | --- | --- | --- | --- | --- |
| 0.74 | 0.37 | 0.55±0.25 | 190 ± 20 µM | 1 | about 4 fold | 730 ± 190 µM | 74 ± 9% | 0.74 | – | – | – | Nc1cc(C(=O)O)ccc1NCC1CCCO1 (stereo not drawn) [Compound 1, 3-Amino-4-[(tetrahydro-2-furanylmethyl)amino] benzoic acid] | – | Increase of stability (half-life) of cathepsin K ([1]; pH 7.4, 37°C, versus enzyme only): about 2 fold; Effect on degradation of calf skin collagen ([3]; SDS-PAGE, increasing concentrations of modifier): concentration-dependent inhibitory effect; IC50 ([3]; degradation of calf skin collagen, read-out: IC 50 (estimated)): ~1000 µM; IC50 ([3]; substrate calf skin collagen 0.5 mg/ml, 0.6 µM cathepsin K, 2 hours 28°C, pH 5.50, estimated, read-out: IC 50): 1000 µM |
| 0.26 | 0.42 | – | 110 ± 20 µM | 0 | – | – | 86 ± 4% | – | 1.7±0.5 | n.i. | – | O=C(Nc1ccc(C(=O)O)c(O)c1)c1ccccc1 [Compound 3, N-Benzoyl-p-aminosalicylic acid] | – | – |
| 0.41 | 0.70 | 1.5±0.3 | 100 ± 40 µM | 0 | – | – | 90 ± 3% | – | 5.6±1.2 | n.i. | – | O=C(O)C(Cc1ccccc1-c1ccccc1)C(=O)O [Compound 4, (2-Biphenylylmethyl) malonic acid] | hyperbolic mixed modifiers with a dual behavior as inhibitors or activators depending on substrate concentration | α (coefficient, effect of modifier on the affinity for the substrate) ([2]; listed as compound 4): > 1; β (coefficient, effect of modifier on the catalytic rate) ([2]; listed as compound 4): > 1 |
| 0.18 | 0.65 | 1 | 270 ± 50 µM | 0 | about 4 fold | 1100 ± 240 µM | 77 ± 8% | 0.77 | 3.0±0.2 | n.i. | – | NCC1CCN(CCc2ccccc2)CC1 [Compound 6, 1-[1-(2-Phenylethyl)-4-piperidinyl]-methanamine] | hyperbolic competitive inhibitor | – |
| 0.47 | 0.48 | 0.19±0.03 | 290 ± 20 µM | 0 | – | – | 104 ± 5% | 1.01 | 0.19±0.03 | n.i. | ineffective | O=C(O)c1ccccc1C(=O)Nc1cccc([N+](=O)[O-])c1 [Compound 7, 2-[(3-Nitrophenyl)carbamoyl]benzoic acid] | hyperbolic mixed inhibitors with uncompetitive character | α (coefficient, effect of modifier on the affinity for the substrate) ([2]; listed as compound 7): < 1; β (coefficient, effect of modifier on the catalytic rate) ([2]; listed as compound 7): < 1 |
| 0.02 | 0.60 | 0.31±0.06 | 1100 ± 200 µM | 0 | – | – | 101 ± 3% | 1.04 | 0.31±0.06 | n.i. | ineffective | COC(=O)CNC1CC(=O)N(c2ccc(OC)cc2)C1=O (stereo not drawn) [Compound 8, Methyl N-[1-(4-methoxyphenyl)-2,5-dioxopyrrolidin-3-yl]glycinate] | hyperbolic mixed inhibitors with uncompetitive character | α (coefficient, effect of modifier on the affinity for the substrate) ([2]; listed as compound 8): < 1; β (coefficient, effect of modifier on the catalytic rate) ([2]; listed as compound 8): < 1 |

From article PMC4153677, “Probing the Activity Modification Space of the Cysteine Peptidase Cathepsin K with Novel Allosteric Modifiers” (PLoS ONE, 2014)
